From paper PMC4595804, “A strategy to discover decoy chemokine ligands with an anti-inflammatory activity” (Scientific Reports, 2015)
Like-named read-outs stand apart in the source and are kept apart here.

Assays:
Type in all cases: cell-based
CCL17 = target: T1, CCL17 (Homo sapiens, UniProt Q92583); test: TRIC-r calcium assay, neutraligand protocol: compound preincubated with CCL17, EGFP-CCR4+Gqi5+ HEK cells
T1 construct: codes for the mature CCL17 or CCL22 with an N-terminal thioredoxin-hexahistidin (TRX- (His)6) tag; thioredoxin (TRX) (N, cleaved yes); (His)6 (N, cleaved yes); made in house; host or cells: E. coli BL21 (DE3)
T1 sequence (Q92583 24-94): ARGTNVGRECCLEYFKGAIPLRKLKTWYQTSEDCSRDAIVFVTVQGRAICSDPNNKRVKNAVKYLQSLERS
Description: EGFP-CCR4^+Gqi5^+HEKcells were loaded with fluorescent Ca^2+-indicator Indo-1 AM (5μM, Interchim) for 45 min at 37 °C. […] Cells (100,000 cells/well, 100μl) were seeded in black clear bottom 96-well plates (Greiner), and centrifuged at 250 × g for 5 min.
Two plates (96-well plates, Greiner) were prepared for the screen: one containing test compounds alone in order to determine their direct agonistic activity, and another one containing test compounds mixed with CCL17 or CCL22 at room temperature for 1 h (neutraligand protocol). The chemokines and test compounds were prepared at a 3× concentration, while digitonin was prepared at a 4× concentration. The CCR4 antagonist, C-021 served as control in the experiment. In the antagonist protocol, compounds were added to the cell plate (one compound per well) and incubated with cells for 30 min at room temperature, while the agonist (CCL17 or CCL22) was added to the ligand plate only.
Dye loaded cells were placed in the FlexStation 3 (Molecular Devices). […] For the primary screening, the ligands (50μl of chemokine mixed with DMSO or test compounds) were added to the cells at 40 s, followed by digitonin addition (50μl) at 100 s to the cells. Molecules were screened at a final concentration of 2μg/ml with 5 nM CCL17 or CCL22. […] The calcium response values (height of peak response over baseline) were determined. Hits were selected by comparing the response amplitude at the time of the chemokine addition ± test compound. The Z’ factor[29] was calculated according to the following equation: Z’ = 1-(3SD+ + 3SD−)/|Ave+ − Ave−|, where SD+ and Ave+ are respectively the standard deviation and the mean value of the positive controls (chemokine + DMSO), while SD− and Ave− are respectively the standard deviation and the mean value of the negative controls (HEPES-BSA (0.1%) mixed with DMSO, or cells mixed with C-021). Hit molecules were confirmed by performing concentration-response curves and their half maximal inhibitory concentration (IC50) values were calculated using the Kaleidagraph software.

CCL3 = target: T2, CCL3 (Homo sapiens, UniProt P10147); test: Selectivity, neutraligand protocol, EGFP-CCR5+ HEK cells; conditions: 10 μM compound, 5 nM CCL3, EGFP-CCR5+ HEK cells
T2 construct: purchased R&D systems
Description: (§1) Figure 6 (a) Selectivity of CCL17 and CCL22 neutraligands towards 10 chemokines according to the “neutraligand protocol”. […] Each column represents the mean (block) ± SD (bars) of n = 3 experiments performed in triplicate. *p < 0.05; **p < 0.01; ***p < 0.005 as compared to chemokine + DMSO. (b) Chemokine neutraligands inhibited CCR4 endocytosis induced by CCL22 or CCL17. EGFP-CCR4^+ HEK cells were incubated for 30 min with DMSO or chemokine (100 nM CCL22 or CCL17) in the presence or absence of test compounds. […] Cell surface EGFP-tagged CCR4 receptors were measured by EGFP antibody labeling and flow cytometry analysis. CCR4 internalization was expressed as a percentage of total receptor surface expression calculated using control cells incubated with DMSO (100%). Each column represents the mean (block) ± SD (bars) of n = 3 experiments performed in triplicate. *p < 0.05; **p < 0.01; ***p < 0.005 as compared to chemokine alone. (c,d) Inhibition of CCL17 and CCL22- induced CCR4^+HUT78 T cell chemotaxis by neutraligands. […] The number of migrating cells induced by a chemokine alone was set at 100% migration. The number of migrating cells in the presence of chemokine and compounds were expressed as the corresponding percentages. Results were analyzed by fitting the experimental curves (% of migrating cells vs log compound concentration) using the Kaleidagraph software program, and the corresponding IC50 values were calculated. Means and SD values of triplicates were plotted.
(§2) Human cDNAs encoding CCR4 and CXCR3 receptors were cloned in pIRES plasmid (Clontech) while cDNAs encoding CCR2, CCR5, CXCR2 and CXCR4 receptors were cloned in pCEP4 vector (Life technologies). The receptors are cloned in frame with a signal peptide fused to enhanced green fluorescent protein (EGFP) as described previously. All plasmid constructs were fully sequenced prior to transfections. Human Kidney Embryonic HEK-293 cells (ATCC) were maintained in Minimal Essential Medium (MEM, Invitrogen) supplemented with 10% FCS, penicillin (100 U/ml), streptomycin (100 μg/ml) and L-glutamine (2 mM) (Invitrogen) at 37 °C and 5% CO2. The cells were transfected with pIRES EGFP-CCR4 plasmid using calcium phosphate precipitation method. Stably EGFP-CCR4^+ HEK cells were selected for 5 weeks with geneticin (G-418, 600μg/ml), and resulting cell clones were checked by fluorescence microscopy and FACS analysis. HEK cells stably expressing human CXCR2, CXCR3, CXCR4, CCR5 and CCR2 were generated as described previously.
(§3) Dye loaded cells were placed in the FlexStation 3 (Molecular Devices). Calcium mobilization was measured at 401 and 475 nm emission fluorescence after excitation at 355 nm. For the primary screening, the ligands (50μl of chemokine mixed with DMSO or test compounds) were added to the cells at 40 s, followed by digitonin addition (50μl) at 100 s to the cells. Molecules were screened at a final concentration of 2μg/ml with 5 nM CCL17 or CCL22. […] Raw fluorescence data (at 401 and 475 nm) were exported and the ratio 401/475 was calculated. The calcium response values (height of peak response over baseline) were determined. Hits were selected by comparing the response amplitude at the time of the chemokine addition ± test compound. The Z’ factor[29] was calculated according to the following equation: Z’ = 1-(3SD+ + 3SD−)/|Ave+ − Ave−|, where SD+ and Ave+ are respectively the standard deviation and the mean value of the positive controls (chemokine + DMSO), while SD− and Ave− are respectively the standard deviation and the mean value of the negative controls (HEPES-BSA (0.1%) mixed with DMSO, or cells mixed with C-021). Hit molecules were confirmed by performing concentration-response curves and their half maximal inhibitory concentration (IC50) values were calculated using the Kaleidagraph software.

CCL4 = target: T3, CCL4 (Homo sapiens, UniProt P13236); test: as above; conditions: 10 μM compound, 5 nM CCL4, EGFP-CCR5+ HEK cells
T3 construct: purchased R&D systems
Description: as §1, §2, §3

CCL5 = target: T4, CCL5 (Homo sapiens, UniProt P13501); test: as above; conditions: 10 μM compound, 5 nM CCL5, EGFP-CCR5+ HEK cells
T4 construct: (His)6; made in house; host or cells: E. coli BL21 (DE3)
Description: as §1, §2, §3

T3 sequence (P13236 24-92): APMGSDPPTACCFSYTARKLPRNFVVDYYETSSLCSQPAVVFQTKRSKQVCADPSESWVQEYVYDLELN
T4 sequence (P13501 24-91): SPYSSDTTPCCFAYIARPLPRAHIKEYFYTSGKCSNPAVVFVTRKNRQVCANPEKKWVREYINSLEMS
T2 sequence (P10147 24-92): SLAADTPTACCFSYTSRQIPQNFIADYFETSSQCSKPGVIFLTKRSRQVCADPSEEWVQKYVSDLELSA

inhibition of CCL17-evoked calcium responses (selectivity) (CCL17; 10 μM compound, 5 nM CCL17, EGFP-CCR4+ HEK cells) | inhibition at 5 µM (CCL17; HEK293, compound 5 µM, read-out: Inhibition of CCL17 calcium responses (%)) [%] | Structure (SMILES) | effect on calcium responses induced by CCL3 (CCL3) | effect on calcium responses induced by CCL4 (CCL4) | effect on calcium responses induced by CCL5 (CCL5) | calcium response induced by WT CCL17 preincubated with compound (CCL17; 10 μM compound, 5 nM chemokine, remaining response) [%] | inhibition at 5 µM (CCL17; HEK293, read-out: Inhibition of CCL17 calcium responses (%)) [%] | inhibition at 10 µM (CCL17; HEK293, read-out: inhibition of CCL17-evoked calcium responses (selectivity)) [%] | inhibition at 2 µg/mL (CCL17; HEK293, read-out: inhibition of CCL17-induced calcium responses (primary screen)) [%]
no effect | 0 | O=C(OCC(O)CO)c1ccccc1O (stereo not drawn) [GPN136, 2,3-dihydroxypropyl 2-hydroxybenzoate] | no effect | no effect | no effect | – | – | – | –
– | – | CC(C)=CCn1cnc2c1c(=O)n(C)c(=O)n2C [GPN279, 1,3-dimethyl-7-(3-methylbut-2-enyl)-1H-purine-2,6(3H, 7H)-dione] | no effect | no effect | no effect | 56.0 ± 5.0 | 42 ± 4 | 40 | 42
